Measurements as given in US5858978A, “Pharmaceutical compositions containing calcitonin gene-related peptide (CGRP) and use thereof to ameliorate hyperimmune mediated diseases and abnormal conditions” (Yale University, priority 1997, dated 1999).
Where two headings read alike, the source gives them in different places.

Experiments:
macrophages = conditions: cited from earlier work
[1] = test system: giant cells (fused alveolar macrophages); experiment: Generation of intracellular cAMP in giant cells (fused alveolar macrophages), radioimmunoassay; format: cell-based, rat
Procedure: (§1) Rat alveolar and peritoneal macrophages were obtained from 12 week old Fisher 344 rats (Charles River, Kingston, N.Y.). Alveolar macrophages were collected by tracheobronchial lavage as previously described (Vignery et al., J. Histochem Cytochem. , 1989). Peritoneal macrophages were collected from the same rats prior to the lung lavage. The collected cells were: (i) washed twice in Minimum Essential Medium with Earle's salts (MEME) supplemented with 2 mM L-glutamine and vitamins; (ii) plated in 6 well dishes at 10^7 cells/ml, 10^6 cells per well, in MEME containing 10% heat inactivated human serum (HS); (iii) incubated for 20 minutes at 37° C. in 5% CO2, 95% air to let the macrophages adhere; (iv) subsequently grown at 10^6 cells/ml of MEME containing 5% heat inactivated HS. Cells were cultured in FCS for the IL-6 bioassay. All tissue culture reagents were purchased from Gibco Laboratories, Grand Island, N.Y. The adherent cell populations were composed of 99% macrophages and a few occasional polymorphonuclear cells as determined by Wright stain.
(§2) For cAMP studies, cells were grown under the conditions described above but using either 24 or 96 well dishes. Each well contained either 2×10^5 or 5×10^4 cells grown in 800 or 200 μl, respectively. The cells were first washed with warm MEME and subsequently incubated at 37° C. in MEME supplemented with BSA (1 mg/ml) (Sigma Chemical, St. Louis, Mo.) either in the absence or presence of Salmon Calcitonin (sCT) (kindly provided by Dr. Orlowski, Rorer Central Research, Horsham, Pa.), rat calcitonin gene-related peptide (CGRP) (Bachem, Inc., Torrance, Calif.) and 3-isobutyl-1-methylxanthine (IBMX)(Sigma) for the indicated times. Incubations were terminated by aspirating the medium and adding 100 μl of 0.4% perchloric acid to each well. Perchloric acid extracts were neutralized with 1.5M KOH and stored at -20° C. These samples were acetylated and cAMP measured by radioimmunoassay using succinylated ^125 I-labeled cARP (Biomedical Technologies, Inc., Stoughton, Ma.). Results were expressed as fentomoles of CAMP per well. Experiments were performed in duplicates or triplicates and repeated at least 3 times.
When peritoneal macrophages from the same animals are grown in these conditions, they remain mononucleated and can therefore be used as a nonfusing control population. It was previously confirmed that giant cells differentiate in vitro by actual cell-cell fusion since DNA synthesis cannot be detected and that the total amount of DNA remains constant during culture in both alveolar and peritoneal macrophages. Therefore, the actual number of alveolar macrophages is decreased drastically by day 4 when each giant cell contains hundreds of nuclei. The important point is that the total number of nuclei remains constant so that we refer to giant cells and peritoneal macrophages as such or else as number of plated cells.

peritoneal macrophages [2] = experiment: Generation of intracellular cAMP in peritoneal macrophages (radioimmunoassay); format: cell-based, rat; conditions: for cAMP accumulation in peritoneal macrophages: all time points examined
Procedure: as §1, §2

[3] = test system: peritoneal macrophages and giant cells; experiment: IL-6 release by peritoneal and fused alveolar macrophages (IL-6 bioassay, B13.29 subclone B9); format: cell-based, rat
Procedure: as §1
(§3) To estimate the release of IL-1 and IL-6 by peritoneal macrophages and fused alveolar macrophages, the cells were collected and cultured as described above. Prior to perform the release, the cells were washed twice with warm MEME and subsequently incubated for 24 hours in 1 ml of MEME supplemented with 5% of HS or FCS, with or without agonist. At the termination of the release, the supernatant were collected, spun at 400 g for 10 minutes, transferred to microfuge tubes and stored at -20° C. until assayed. Macrophages remained adherent and viable in all experiments as determined by DNA measurements and trypan blue exclusion.
Five thousand,B13.29 cells subclone B9 (donated by Dr. Thomas Kupper, Washington University of School of Medicine, Washington, Mo.) were cultured in the presence of a log2 dilution series of macrophage supernatants or standard dilutions of rmIL-6 according to Aarden, L. A. ( Eur. J. Immunol., 1987, 17:1411-1416). […]

[4] = test system: giant cells (fused alveolar macrophages); experiment: IL-1 release by giant cells (fused alveolar macrophages), IL-1 bioassay of supernatants; format: cell-based, rat; conditions: added to release medium on day 3, 24 hour release
Procedure: as §1, §3
IL-1 activity in the macrophage supernatants was measured according to Gillis and Mizel (Proc. Natl. Acad. Sci., USA, 1981, 78:1133-1137). LBRM-33 cells, clones 1A5 and 5A4 (ATCC, Rockville, Md.) were stimulated with either PHA (Gibco), rm IL-1β or log2 dilutions of the macrophage supernatants. […] After 24 hours, the cells were exposed to 0.5 μCi[^3 H]dThd (20 mCi/mmol, New England Nuclear) for an additional 4 hours after which the cultures were harvested onto glass fiber filter strips with the aid of a multiple automated sample harvester (MASH 11, Microbiological Associates, Bethesda, Md.) [^3 H]dThd incorporation was determined by direct counting.
When peritoneal macrophages from the same animals are grown in these conditions, they remain mononucleated and can therefore be used as a nonfusing control population. It was previously confirmed that giant cells differentiate in vitro by actual cell-cell fusion since DNA synthesis cannot be detected and that the total amount of DNA remains constant during culture in both alveolar and peritoneal macrophages. […]

peritoneal macrophages [5] = experiment: IL-1 release by peritoneal macrophages (IL-1 bioassay of supernatants); format: cell-based, rat; conditions: for IL-1 activity detected in peritoneal macrophage supernatants: added to release medium on day 3, 24 hour release
Procedure: as §1, §3
(§4) IL-1 activity in the macrophage supernatants was measured according to Gillis and Mizel (Proc. Natl. Acad. Sci., USA, 1981, 78:1133-1137). LBRM-33 cells, clones 1A5 and 5A4 (ATCC, Rockville, Md.) were stimulated with either PHA (Gibco), rm IL-1β or log2 dilutions of the macrophage supernatants. LBRM-33 lymphocyte supernatants were harvested from 24 hour cultures and subsequently tested for IL-2 activity using a standard microassay, Gillis et al. (J. Immunol., 1978, 120:2027-2032), based on the IL-2 dependent exponential proliferation of a murine cytotoxic T-cell line CTLL (ATCC, Rockville, Md.), Gillis and Smith (Nature (London), 1977, 268:154-156). CTLL cells were cultured in the presence of a log2 dilution series of putative IL-2 containing samples. After 24 hours, the cells were exposed to 0.5 μCi[^3 H]dThd (20 mCi/mmol, New England Nuclear) for an additional 4 hours after which the cultures were harvested onto glass fiber filter strips with the aid of a multiple automated sample harvester (MASH 11, Microbiological Associates, Bethesda, Md.) [^3 H]dThd incorporation was determined by direct counting.

[6] = test system: chronic rheumatoid arthritis; experiment: Treatment of chronic rheumatoid arthritis in a human being; format: in vivo; conditions: I.M. administration of 0.5 mg every 24 hours until relief
CTLL cells = experiment: IL-2 dependent proliferation of CTLL cells treated directly; format: cell-based, murine; conditions: in the presence of IL-2
Procedure: as §4

LBRM-33 cells = experiment: IL-1 bioassay with CGRP added to IL-1 containing medium (LBRM-33 cells, CTLL readout); format: cell-based, murine
Procedure: as §4

In the case of calcitonin [CT], the macrophage activation (macrophages) is given as “prevented macrophage activation”.

For `CC(C)C[C@H](NC(=O)[C@H](CCCCN)NC(=O)CNC(=O)[C@H](CC(C)C)NC(=O)[C@@H](NC(=O)[C@@H]1CSSC[C@H](N)C(=O)N[C@@H](CO)C(=O)N[C@@H](CC(N)=O)C(=O)N[C@@H](CC(C)C)C(=O)N[C@@H](CO)C(=O)N[C@@H]([C@@H](C)O)C(=O)N1)C(C)C)C(=O)N[C@@H](CO)C(=O)N[C@@H](CCC(N)=O)C(=O)N[C@@H](CCC(=O)O)C(=O)N[C@@H](CC(C)C)C(=O)N[C@@H](Cc1c[nH]cn1)C(=O)N[C@@H](CCCCN)C(=O)N[C@@H](CC(C)C)C(=O)N[C@@H](CCC(N)=O)C(=O)N[C@H](C(=O)N[C@@H](Cc1ccc(O)cc1)C(=O)N1CCC[C@H]1C(=O)N[C@@H](CCCNC(=N)N)C(=O)N[C@H](C(=O)N[C@@H](CC(N)=O)C(=O)N[C@H](C(=O)NCC(=O)N[C@@H](CO)C(=O)NCC(=O)N[C@H](C(=O)N1CCC[C@H]1C(N)=O)[C@@H](C)O)[C@@H](C)O)[C@@H](C)O)[C@@H](C)O` [sCT, Salmon Calcitonin], the “time of peak of cAMP accumulation after addition of the peptide” value ([1]; fused alveolar macrophages, absence of IBMX) was 5 min, the “lag time to cAMP accumulation” value ([1]; fused alveolar macrophages, with 10 μM IBMX) was 2 min and the “time at which cAMP returned to basal level” value ([1]; giant cells, absence of IBMX) was 15 min. The “time at which cAMP returned to basal level” value ([1]; giant cells, presence of IBMX) was 30 min, the “half maximal cAMP accumulation” value ([1]; giant cells, sCT dose response) was 50 fmoles per 6.4×10^4 plated cells and the EC50 ([1]; giant cells, sCT dose response, read-out: concentration for half maximal stimulation of cAMP accumulation) was 2 nM. The “cAMP accumulation in peritoneal macrophages” value (peritoneal macrophages [2]) was “failed to induce a response”, the “IL-6 activity level in macrophage supernatants” value (from here on “IL-6 activity level”) [3] was “neither sCT nor CGRP treatment of the cells modified this level” and the “IL-1 activity detected in giant cell supernatants” value [4] was “reduced significantly”.

With `CC(C)Cn1c(=O)n(C)c(=O)c2[nH]cnc21` [IBMX, 3-isobutyl-1-methylxanthine] the “cAMP accumulation in giant cells” value ([1]; fused alveolar macrophages, any time point measured) was “not able at any time point measured to induce a cAMP accumulation” and the “cAMP accumulation in peritoneal macrophages” value (peritoneal macrophages [2]) was “not able at any time point measured to induce a cAMP accumulation”.

With `C=C1/C(=C\C=C2/CCC[C@]3(C)[C@@H]([C@H](C)CCCC(C)(C)O)CC[C@@H]23)C[C@@H](O)C[C@@H]1O` [1,25(OH)2 -vitamin D3] the “IL-1 activity detected in peritoneal macrophage supernatants” value (peritoneal macrophages [5]) was “stimulated the proliferation of CTLL cells, and probably IL-1 release”, the “IL-6 activity level” value [3] was “neither CGRP nor 1,25(OH)2 -vitamin D3 appear to significantly alter this process” and the “IL-1 activity detected in giant cell supernatants” value [4] was “fail to respond”.

With `C=C[C@@]1(C)CC(=O)[C@]2(O)[C@@]3(C)[C@@H](O)CCC(C)(C)[C@@H]3[C@H](O)[C@H](OC(C)=O)[C@@]2(C)O1` [forskolin] the “IL-1 activity detected in peritoneal macrophage supernatants” value (peritoneal macrophages [5]) was “as effective as CGRP in blocking the secretion of IL-1” and the “IL-1 activity detected in giant cell supernatants” value [4] was “as effective as CGRP in blocking the secretion of IL-1”.

With “Rat Calcitonin Gene-Related Peptide [CGRP]” the “half maximal concentration of cAMP” value ([1]; fused alveolar macrophages, 2 minutes incubation in the presence of IBMX) was 300 fmoles per 5×10^4 plated cells, the EC50 ([1]; fused alveolar macrophages, 2 minutes incubation in the presence of IBMX, read-out: concentration giving half maximal concentration of cAMP) was 2 nM and the “cAMP accumulation compared with CT” value ([1]; macrophages, comparison CGRP vs CT) was “larger accumulation of cAMP in macrophages than CT”. The “symptoms of the disease, e.g. pain and swelling of the affected joints” value [6] was “amelioration of the symptoms of the disease”, the “proliferation of CTLL cells” value (CTLL cells) was “did not prevent significantly their proliferation” and the “ability of macrophages to act as APC” value (macrophages) was “profoundly inhibit”. The “ability of macrophages to produce H2O2 in response to IFN” value (macrophages) was “profoundly inhibit”, the “IL-1 bioactivity in supernatants of vitamin D3 stimulated peritoneal macrophages” value (peritoneal macrophages [5]; 1,25(OH)2-vitamin D3 stimulated peritoneal macrophages) was “reduce significantly” and the “IL-1 activity detected in peritoneal macrophage supernatants” value (peritoneal macrophages [5]) was “prevented the release of IL-1 by both cell types”. The “half maximal concentration of cAMP” value (peritoneal macrophages [2]; peritoneal macrophages, 2 minutes incubation in the presence of IBMX) was 80 fmoles per 5×10^4 plated cells, the EC50 (peritoneal macrophages [2]; peritoneal macrophages, 2 minutes incubation in the presence of IBMX, read-out: concentration giving half maximal concentration of cAMP) was 2 nM and the “IL-6 activity level” value [3] was “neither sCT nor CGRP treatment of the cells modified this level”. The “IL-1 activity detected in giant cell supernatants” value [4] was “prevented the release of IL-1 by both cell types” and the “proliferative response of CTLL cytotoxic T cells in the IL-1 bioassay” value (LBRM-33 cells) was “prevents the proliferative response”.
